How the values were obtained:
[1] = system: Salsola kali (Russian thistle, SASKR); assay: Greenhouse postemergence trial SASKR; type: in vivo; conditions: Salsola kali, post-emergence; SASKR; Florpyrauxifen-benzyl 20 g/ha; read-out: % visual injury Obs;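 further: greenhouse plants sprayed at second or third true leaf stage, injury rated by eye after 20-22 d against solvent-blank controls, 0 meaning no injury, 100 complete kill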
Protocol: (§1) The plants were grown for 7-36 days (d) in a greenhouse with an approximate 14-hour (h) photo-period which was maintained at about 23° C. during the day and 22° C. during the night. Nutrients and water were added on a regular basis and supplemental lighting was provided with overhead metal halide 1000-Watt lamps as necessary. The plants were employed for testing when they reached the second or third true leaf stage.
(§2) The emulsifiable concentrates also included a safener, cloquintocet-mexyl, at 120 grams active ingredient per liter (g ai/L), unless otherwise noted below.
(§3) Control plants were sprayed in the same manner with the solvent blank. All pyridine carboxylate herbicide (component a) application rates are given as “g ae/ha” and all synthetic auxin herbicide or auxin transport inhibitor (component b) application rates are given as “g ai/ha.”
(§4) The treated plants and control plants were placed in a greenhouse as described above and watered by sub-irrigation to prevent wash-off of the test compounds. After 20-22 d, the condition of the test plants as compared with that of the control plants was determined visually and scored on a scale of 0 to 100 percent where 0 corresponds to no injury and 100 corresponds to complete kill.

[2] = system: Hordeum vulgare (winter barley, HORVW); assay: Greenhouse postemergence crop phytotoxicity HORVW; type: in vivo; conditions: HORVW; Florpyrauxifen-benzyl 20 g/ha
[3] = system: Sinapis arvensis (wild mustard, SINAR); assay: Greenhouse postemergence trial SINAR; type: in vivo; conditions: SINAR
Protocol: as §1, §2, §3, §4

[4] = system: Veronica persica (bird's-eye speedwell, VERPE); assay: Greenhouse postemergence trial VERPE; type: in vivo; conditions: Veronica persica, post-emergence, read-out: % visual injury Obs
[5] = system: Hordeum vulgare (spring barley, HORVS); type: in vivo; conditions: HORVS; Florpyrauxifen-benzyl 20 g/ha
Protocol: (§5) Seeds of the desired test plant species were planted in a 90:10% v/v (volume/volume) mixture of PRO-MIX® BX (Premier Tech Horticulture, Quakertown, PA, USA) and PROFILE® GREENS GRADE™ (Profile Products LLC, Buffalo Grove, IL, USA) planting mixture, which typically has a pH of 5.2 to 6.2 and an organic matter content of at least 50 percent, in plastic pots with a surface area of 103.2 square centimeters (cm^2). […] The plants were grown for 7-36 days (d) in a greenhouse with an approximate 14-hour (h) photo-period which was maintained at about 23° C. during the day and 22° C. during the night. Nutrients and water were added on a regular basis and supplemental lighting was provided with overhead metal halide 1000-Watt lamps as necessary. The plants were employed for testing when they reached the second or third true leaf stage.
(§6) Emulsifiable concentrates of each of each pyridine carboxylate herbicide (Compound A or Compound B) were prepared at 100 grams acid equivalent per liter (g ae/L). The emulsifiable concentrates also included a safener, cloquintocet-mexyl, at 120 grams active ingredient per liter (g ai/L), unless otherwise noted below. An aliquot of each emulsifiable concentrate was placed in a 25 mL glass vial and diluted with an aqueous mixture of 1.25% (v/v) ACTIROB® B esterified rapeseed oil (Bayer Crop Science, Research Triangle Park, NC, USA) or MSO® Concentrate with LECI-TECH® methylated soybean oil (Loveland Products, Loveland, CO, USA) to obtain concentrated stock solutions at the highest application rate for each herbicide, based upon a 12 milliliter (mL) application volume at a rate of 187 liters per hectare (L/ha). The concentrated stock solutions were further diluted with an aqueous mixture of 1.25% v/v ACTIROB® B or MSO® Concentrate with LECI-TECH® to obtain stock solutions at reduced application rates for each herbicide. Spray solutions of the herbicide combinations (Compound A or Compound B plus synthetic auxin herbicide or auxin transport inhibitor) were prepared by adding weighed amounts or aliquots of the synthetic auxin herbicide or auxin transport inhibitor to the stock solutions of Compound A or Compound B to form 12-mL spray solutions in two-way combinations.
(§7) The spray solutions were applied to the plant material with an overhead Mandel track sprayer equipped with 8002E nozzles calibrated to deliver 187 L/ha over an application area of 0.503 square meters (m^2) at a spray height of 18 inches (43 centimeters (cm)) above the average plant canopy. Control plants were sprayed in the same manner with the solvent blank. All pyridine carboxylate herbicide (component a) application rates are given as “g ae/ha” and all synthetic auxin herbicide or auxin transport inhibitor (component b) application rates are given as “g ai/ha.”
as §4

[6] = system: Cirsium arvense (Canadian thistle, CIRAR); assay: Greenhouse postemergence trial CIRAR; type: in vivo
[7] = system: Cyanus segetum (cornflower, CENCY); assay: Greenhouse postemergence trial CENCY; type: in vivo; conditions: Centaurea cyanus, post-emergence, read-out: % visual injury Obs
[8] = system: Rumex obtusifolius (broad-leaf dock, RUMOB); assay: Greenhouse postemergence trial RUMOB; type: in vivo
[9] = system: Stellaria media (chickweed, STEME); assay: Greenhouse postemergence trial STEME; type: in vivo
[10] = system: Brassica napus (winter rape, BRSNW); assay: Greenhouse postemergence trial BRSNW; type: in vivo
[11] = system: Brassica napus (spring rape, BRSNN); assay: Greenhouse postemergence trial BRSNN; type: in vivo; conditions: c2-3 Compound A 7.5/10; c4 Florpyrauxifen-benzyl 10; c5-6 A 7.5/10 + Florpyrauxifen-benzyl 10 g/ha
Protocol: as §1, §2, §3, §4

[12] = system: Polygonum convolvulus (wild buckwheat, POLCO); assay: Greenhouse postemergence trial POLCO; type: in vivo
[13] = system: Viola arvensis (field violet, VIOAR); assay: Greenhouse postemergence trial VIOAR; type: in vivo; conditions: Viola arvensis, post-emergence, read-out: % visual injury Obs
[14] = system: Viola tricolor (wild pansy, VIOTR); assay: Greenhouse postemergence trial VIOTR;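 further: greenhouse plants sprayed at second to third true leaf stage, injury rated visually after 20-22 d against solvent-blank sprayed controls, 0 meaning no injury and 100 complete kill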
Protocol: as §5, §6, §7, §4

[15] = system: Lamium purpureum (purple deadnettle, LAMPU); assay: Greenhouse postemergence trial LAMPU; conditions: Lamium purpureum, post-emergence, read-out: % visual injury Obs
[16] = system: Matricaria discoidea (pineapple weed, MATMT); assay: Greenhouse postemergence trial MATMT; type: in vivo; conditions: Matricaria discoidea, post-emergence, read-out: % visual injury Obs
Protocol: as §5, §6, §7, §4

[17] = system: Papaver rhoeas (corn poppy), herbicide-resistant (PAPRH-R); assay: Greenhouse postemergence trial PAPRH-R; type: in vivo; conditions: Papaver rhoeas, post-emergence, read-out: % visual injury Obs
[18] = system: Papaver rhoeas (corn poppy, PAPRH); assay: Greenhouse postemergence trial PAPRH; type: in vivo; conditions: Papaver rhoeas, post-emergence, read-out: % visual injury Obs
[19] = system: Capsella bursa-pastoris (shepherd's purse, CAPBP); assay: Greenhouse postemergence trial CAPBP; type: in vivo; conditions: Capsella bursa-pastoris, post-emergence, read-out: % visual injury Obs
[20] = system: Matricaria chamomilla (wild chamomile, MATCH); assay: Greenhouse postemergence trial MATCH; type: in vivo; conditions: MATCH;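 further: greenhouse plants sprayed at second to third true leaf stage, injury rated by eye 20-22 d later versus solvent-blank controls on 0–100 scale, 0 no injury, 100 complete kill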
[21] = system: Matricaria inodora (false chamomile, MATIN); assay: Greenhouse postemergence trial MATIN; type: in vivo; conditions: Tripleurospermum inodorum, post-emergence, read-out: % visual injury Obs
Protocol: as §5, §6, §7, §4

[22] = system: Triticum aestivum (winter wheat, TRZAW); assay: Greenhouse postemergence crop phytotoxicity TRZAW; type: in vivo; conditions: TRZAW; Florpyrauxifen-benzyl 20 g/ha
[23] = system: Triticum aestivum (spring wheat, TRZAS); type: in vivo; conditions: TRZAS; Florpyrauxifen-benzyl 20 g/ha
Protocol: as §5, §6, §7, §4

[24] = system: Kochia scoparia (kochia, KCHSC); assay: Greenhouse postemergence trial KCHSC; type: in vivo
Protocol: as §5, §6, §7, §4

[25] = system: Veronica hederifolia (ivyleaf speedwell, VERHE); assay: Greenhouse postemergence trial VERHE; type: in vivo; conditions: Veronica hederifolia, post-emergence, read-out: % visual injury Obs
Protocol: as §5, §6, §7, §4

[26] = system: Anthemis arvensis (field chamomile, ANTAR); assay: Greenhouse postemergence trial ANTAR; type: in vivo; conditions: Anthemis arvensis, post-emergence, read-out: % visual injury Obs
[27] = system: Chenopodium album L. (common lambsquarters, CHEAL); assay: Greenhouse postemergence trial CHEAL; type: in vivo;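 further: greenhouse plants sprayed at second to third true leaf stage, injury rated by eye after 20-22 d versus solvent-blank sprayed controls, 0 = no injury, 100 = complete kill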
Protocol: as §1, §2, §3, §4

[28] = system: Helianthus annuus (common sunflower, HELAN); assay: Greenhouse postemergence trial HELAN; type: in vivo; conditions: Dichlorprop-K 280 g/ha (Table 40)
Protocol: as §5, §6, §7, §4

[29] = system: Amaranthus retroflexus (pigweed, AMARE); assay: Greenhouse postemergence trial AMARE; type: in vivo;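 further: Greenhouse-grown plants sprayed at second to third true leaf stage, injury rated by eye after 20-22 d versus solvent-blank sprayed controls, 0 = no injury, 100 = complete kill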
[30] = system: Glycine max (volunteer soybean, GLXMA); assay: Greenhouse postemergence trial GLXMA; type: in vivo; conditions: Dichlorprop-K 280 g/ha (Table 40)
Protocol: as §5, §6, §7, §4

[31] = system: Ipomoea hederacea (ivyleaf morningglory, IPOHE); assay: Greenhouse postemergence trial IPOHE; type: in vivo; conditions: Dichlorprop-K 280 g/ha (Table 40)
Protocol: as §5, §6, §7, §4

[32] = system: Abutilon theophrasti (velvetleaf, ABUTH); assay: Greenhouse postemergence trial ABUTH; type: in vivo; conditions: Dichlorprop-K 280 g/ha (Table 40)
Protocol: as §5, §6, §7, §4

[33] = Dichlorprop-K 280 g/ha (Table 40)

COc1c(Cl)ccc(-c2nc(C(=O)OCc3ccccc3)c(Cl)c(N)c2F)c1F [Florpyrauxifen-benzyl, florpyrauxifen-benzyl, reference compound]
pest or weed control at 20 g/ha [1]: 70% | % visual injury Obs [2]: 0% | pest or weed control at 20 g/ha ([3]; Mutarda arvensis, post-emergence, Florpyrauxifen-benzyl 20 g/ha, read-out: % visual injury Obs): 90% | pest or weed control at 20 g/ha [4]: 10% | % visual injury Obs [5]: 0% | pest or weed control at 20 g/ha ([6]; Cirsium arvense, post-emergence, CIRAR, Florpyrauxifen-benzyl 20 g/ha, read-out: % visual injury Obs): 70% | pest or weed control at 20 g/ha [7]: 100% | % visual injury, Obs ([8]; c2-3 Compound A 7.5/10, c4 Florpyrauxifen-benzyl 10, c5-6 A 7.5/10 + Florpyrauxifen-benzyl 10 g/ha): 33% | pest or weed control at 20 g/ha ([9]; Stellaria media, post-emergence, read-out: % visual injury Obs): 100% | plant injury at 20 g/ha ([10]; Brassica napus, post-emergence, read-out: % visual injury Obs): 40% | % visual injury, Obs [11]: 25% | pest or weed control at 20 g/ha ([12]; Fallopia convolvulus, post-emergence, read-out: % visual injury Obs): 85% | pest or weed control at 20 g/ha [13]: 10% | pest or weed control at 20 g/ha ([14]; Viola tricolor, post-emergence, read-out: % visual injury Obs): 70% | pest or weed control at 20 g/ha [15]: 97% | pest or weed control at 20 g/ha [16]: 50% | pest or weed control at 20 g/ha [17]: 60% | pest or weed control at 20 g/ha [18]: 70% | pest or weed control at 20 g/ha [19]: 80% | pest or weed control at 20 g/ha ([20]; Matricaria chamomilla, post-emergence, Florpyrauxifen-benzyl 20 g/ha, read-out: % visual injury Obs): 35% | pest or weed control at 20 g/ha [21]: 50% | % visual injury Obs [22]: 0% | % visual injury Obs [23]: 0% | pest or weed control at 20 g/ha ([24]; Bassia scoparia, post-emergence, KCHSC, Florpyrauxifen-benzyl 20 g/ha, read-out: % visual injury Obs): 65% | pest or weed control at 20 g/ha [25]: 20% | pest or weed control at 20 g/ha [26]: 100%

CC(Oc1ccc(Cl)cc1Cl)C(=O)[O-].[K+] (stereo not shown) [Dichlorprop-K]
% visual injury (Obs) ([3]; alone 280 g/ha): 78% | % visual injury (Obs) ([27]; CHEAL, alone 280 g/ha): 70% | CHEAL % visual injury Obs [27, 33]: 60% | % visual injury (Obs) ([6]; CIRAR, alone 280 g/ha): 15% | CIRAR % visual injury Obs [6, 33]: 63% | HELAN % visual injury Obs [28]: 90% | % visual injury (Obs) ([29]; AMARE, alone 280 g/ha): 85% | AMARE % visual injury Obs [29, 33]: 10% | GLXMA % visual injury Obs [30]: 33% | RUMOB % visual injury Obs [8, 33]: 73% | STEME % visual injury Obs [9, 33]: 0% | % visual injury (Obs) ([10]; BRSNW, alone 280 g/ha): 63% | POLCO % visual injury Obs [12, 33]: 0% | % visual injury (Obs) ([12]; POLCO, alone 280 g/ha): 18% | VIOTR % visual injury Obs [14, 33]: 65% | IPOHE % visual injury Obs [31]: 75% | % visual injury (Obs) ([20]; alone 280 g/ha): 20% | ABUTH % visual injury Obs [32]: 40% | KCHSC % visual injury Obs [24, 33]: 63% | % visual injury (Obs) ([24]; KCHSC, alone 280 g/ha): 60%
